Assays:
[1] = Cryogenic grinding of perfluorinated elastomers (Spex mill), MeOH extraction and LC/MS determination of perfluorinated carboxylic acids; format: physicochemical; details: 10 wt.-% BHT versus no radical scavenger
Text: (§1) The general procedures described in "3M Standard Method for PFAS in Articles of Commerce, Edition 1, 02 June 2020", including the test and analytical equipment, was followed. The disclosure of this document is incorporated herein by reference in its entirety. In particular, reference is made with regard to the experimental and analytical setup and methods used in the present disclosure to the chapter "Part 3: Instrumental Analysis", 3.1.1 "Analytical Equipment and Materials" as well as 3.1.2 "HPLC Conditions (exemplary)".
(§2) The submitted samples were dissolved in methanol prior to analysis. Standard solutions were prepared from an aqueous solution of Adona that was determined to have a concentration of 28.36% by NMR.
In this study the inhibition effect of radical scavengers on the generation of perfluorinated carboxylic acids during cryogenic grinding of PFE and PFE compounds was investigated. As example 1, PTFE 191 plus 10 wt.-% BHT as radical scavenger was used. The amount of BHT was added as a powder to the gum in the milling container. Comparative Example 1 was PTFE 191 without BHT or any other radical scavengers. […]
The perfluorinated carboxylic acids were determined by extraction of the grinded material with MeOH and subsequent LC/MS measurements. […]

[2] = Cryogenic grinding of crystalline perfluorinated polymers on the Spex mill, MeOH extraction and LC/MS determination of perfluorinated carboxylic acids; format: physicochemical; details: 10 wt.-% BHT versus no radical scavenger
Text: as §1, §2
In this study the inhibition effect of radical scavengers on the generation of perfluorinated carboxylic acids during cryogenic grinding of crystalline fluoropolymers was investigated. The polymers were grinded on a Spex or Retsch mill under the addition of BHT (2,6-Di-tert-butyl-4-methylphenol; CAS 128-37-0). The BHT was added as a powder to the polymer in the milling tube. Table 3. Milling conditions.
Perfluorinated carboxylic acids were extracted with MeOH and determined by LC/MS measurements as published in the 3M Standard test method for the determination of PFOA in articles of commerce. […]

Cc1cc(C(C)(C)C)c(O)c(C(C)(C)C)c1 [BHT, 2,6-Di-tert-butyl-4-methylphenol]
lowers the PFOA formation [1]: within three orders of magnitude | formation of C3-C7 Perfluorocarboxylic acids is reduced by a factor of [2]: 18

Reference: patent publication EP4019580A1, “REDUCTION OF FLUORINATED ACID IN FLUOROPOLYMERS” (3M Innovative Properties Company, priority 2020, dated 2022)
